From patent US20070254894A1, “Novel small molecules with selective cytotoxicity against human microvascular endothelial cell proliferation” (priority 2006, published 2007)
Structures can show the parent of a compound that is named as a salt. Where two headings read alike, the source gives them in different places.

Assays:
in vitro = settings: human, primary human dermal fibroblasts, D. Fibroblast LC50, 6 days, Alamar blue
Method: (§1) In parallel with the VEGF and FGF screens, a normal cell toxicity assay was run. Primary Human Dermal Fibroblasts (Clonetics) were plated at 5000 cells/well. After 24 hours various concentrations of test compounds, were added in duplicate plates and 10% Tween-20 was added to four control wells to represent total death. At the same time a T-zero plate was generated. The plates were returned to the carbon dioxide incubator and on day 6 Alamar blue was added and the plates read after 3 hours.
(§2) Using a T-zero plate allows the observation of compounds that cause the cells to become static as well as inhibit growth.

[1] = test system: HMVEC cells stimulated with VEGF 165; experiment: VEGF driven HMVEC proliferation screen; assay type: cell-based
Method: (§3) HMVEC cells were plated on collagen-coated plates at 2500 cells/well for 24 hours. Various concentrations of test compounds were then added to duplicate plates. […] Anti-FGF antibody (final concentration of 5 μg/mL) was added to four control wells as a standard inhibitor. At the same time the compounds were added, a T-zero plate was generated (Alamar blue was added to a plate and read after three hours). The plates with the compounds were incubated for one hour at 37° C., 5% carbon dioxide. At this point, b-FGF was added (final concentration of 2.5 ng/mL). Tween-20 (10 μL) was added to four additional control wells to represent total death and the plates were returned to the carbon dioxide incubator for 6 days.
The assay was run identically using VEGF in place of b-FGF. The final concentration of VEGF 165, in this mode, was 10 ng/mL. The control inhibitor was anti-VEGF antibody (final concentration of […]). All other conditions were the same.

[2] = test system: HMVEC cells stimulated with b-FGF; experiment: b-FGF driven HMVEC proliferation screen; assay type: cell-based
Method: as §3

[3] = test system: Primary Human Dermal Fibroblasts; experiment: in vitro; settings: read-out: D. Fibroblast LC50, 6 days, Alamar blue
Method: as §1, §2

[4] = Homo sapiens, HMVEC, 144 h, VEGF 165 10 ng/mL, 6 days, Alamar blue, read-out: VEGF LC50
[5] = Homo sapiens, HMVEC, 144 h, b-FGF 2.5 ng/mL, 6 days, Alamar blue, read-out: b-FGF LC50
[6] = VEGF 165 10 ng/mL, 6 days, Alamar blue, read-out: VEGF LC50
[7] = b-FGF 2.5 ng/mL, 6 days, Alamar blue, read-out: b-FGF LC50

| SMILES | CC50 at 6 days (in vitro) [nM] | CC50 [1, 4] [nM] | CC50 [2, 5] [nM] | further results |
| --- | --- | --- | --- | --- |
| O=C(Nc1cc(Cl)c(Cl)c2cccnc12)c1ccccn1 [Compound 97] | > 10000 | 250 | 250 |  |
| CC(C)CN1CCC[C@H]1C(=O)Nc1cccc2cccnc12 [Compound 63] | > 10000 | 5500 | 4400 |  |
| CC(C)N1CCC[C@H]1C(=O)Nc1cccc2cccnc12 [Compound 64] | > 10000 | 6400 | 5200 |  |
| O=S(=O)(Nc1cc(Cl)c(Cl)c2cccnc12)c1ccccn1 [Compound 109] | > 10000 | 450 | 340 |  |
| Cc1cc(NS(=O)(=O)c2ccccn2)c2ncccc2c1C [Compound 75, pyridine-2-sulfonic acid (5,6-dimethyl-quinolin-8-yl)-amide] | > 10000 | 190 | 160 |  |
| O=C(Nc1cccc2cccnc12)c1cc(Oc2ccccc2)ccn1 [Compound 32, 4-phenoxypyridine-2-carboxylic acid quinolin-8-ylamide] | > 10000 | 1100 | 1800 |  |
| COc1cc(NC(=O)[C@@H]2CCCN2C)c2ncccc2c1 [Compound 66] | > 10000 | 240 | 240 |  |
| O=C(Nc1cccc2cccnc12)c1cc(N2CCC(N3CCCC3)CC2)ccn1 [Compound 103] | 4300 | 33 | 38 |  |
| O=C(Nc1cccc2cccnc12)c1cc(Cl)ccn1 [Compound 22, 4-chloropyridine-2-carboxylic acid quinolin-8-ylamide] | > 10000 | 100 | 130 |  |
| CN(C)CC(=O)Nc1cccc2cccnc12 [Compound 55, 2-dimethylamino-N-quinolin-8-yl-acetamide] | > 10000 | 630 | 590 |  |
| Cc1cc(NC(=O)c2ccccn2)c2ncccc2c1C [Compound 95] | > 10000 | 150 | 170 |  |
| CN1CCCN(c2ccnc(C(=O)Nc3cccc4cccnc34)c2)CC1 [Compound 102] | > 10000 | 24 | 31 |  |
| O=C(Nc1cccc2ccnnc12)c1ccccn1 [Compound 76] | > 10000 | 3500 | 3300 |  |
| Cc1cc(NC(=O)c2ccccn2)c2ncccc2c1Br [Compound 16, pyridine-2-carboxylic acid (5-bromo-6-methyl-quinolin-8-yl)-amide] | > 10000 | 380 | 380 |  |
| O=S(=O)(Nc1cccc2nccnc12)c1ccccn1 [Compound 78] | > 10000 | 2400 | 4200 |  |
| CN1CCCC[C@@H]1C(=O)Nc1cccc2cccnc12 [Compound 70] | > 10000 | 3900 | 2800 |  |
| CN(C)[C@@H](Cc1ccccc1)C(=O)Nc1cccc2cccnc12 [Compound 59] | > 10000 | 1200 | 1100 |  |
| CN1CCN(c2ccnc(C(=O)Nc3cccc4cccnc34)c2)CC1 [Compound 100, 4-(4-methylpiperazin-1-yl)pyridine-2-carboxylic acid quinolin-8-ylamide trifluoroacetate salt] |  | 18 | 19 | CC50 ([3]; trifluoroacetate salt): 2900 nM |
| CN1CCN(c2ccnc(C(=O)Nc3cccc4cccnc34)c2)CC1 [Compound 101] |  |  |  | CC50 [3]: > 10000 nM; CC50 [1, 6]: 15 nM; CC50 [2, 7]: 14 nM |
| O=C(Nc1cccc2cccnc12)c1cc2ccccc2cn1 [Compound 28] |  |  |  | CC50 [3]: > 10000 nM; CC50 [1]: 480 nM; CC50 [2]: 610 nM |
| CCN(C)c1ccccc1NC(=O)c1ccccn1 [Compound 81] |  |  |  | CC50 [3]: > 10000 nM; CC50 [1]: 620 nM; CC50 [2]: 500 nM |
| COc1cc(NC(=O)c2cc(N3CCN(C)CC3)ccn2)c2ncccc2c1 [Compound 54] |  |  |  | CC50 [3]: > 10000 nM; CC50 [1, 6]: 15 nM; CC50 [2, 7]: 20 nM |
| O=C(Nc1cccc2cc(Cl)cnc12)c1ccccn1 [Compound 7] |  |  |  | CC50 [3]: > 10000 nM; CC50 [1]: 310 nM; CC50 [2]: 320 nM |
